Legend:
[1] = test system: MES induced seizures in rats; test: Maximal Electroshock Seizure (MES) model; type: in vivo; details: Rattus norvegicus, ip, read-out: ED50, protection to hind limb tonic extension due to electroshock
Protocol: In order to evaluate the efficacy of the extract of Sapindus trifoliatus, for its prophylactic therapeutic potential in migraine, its role as an anticonvulsant was evaluated in an in vivo animal model. […]
Male Wistar rats (150-200 g) were used in the study. […] Mortality if any was recorded. […]
Values of incidence and mortality were expressed as ratios and analysed by Fisher's test. The latency for onset and duration of hind limb extension of maximal electroshock induced convulsions were averaged, expressed as mean±standard deviation. Mean values were analysed by one way ANOVA followed by Dunnett ‘t’ test for multiple comparison or Students ‘t’ test for comparing two means. […] ED50 values were calculated by probit analysis [Finney, D. J., Probit Analysis, Cambridge University Press, London, 1947].

[2] = test system: PTZ induced seizures in rats; type: in vivo; details: 4 mg/kg, i.p., 2 ml/kg, standard control

CCCC(CCC)C(=O)[O-].[Na+] [Sodium valproate]
ED50 [1]: 67.7 mg/kg

CN1C(=O)CN=C(c2ccccc2)c2cc(Cl)ccc21 [diazepam, Diazepam]
Protection against PTZ induced seizures [2]: significantly protected

From patent publication US20050249831A1, “Herbal extract comprising a mixture of saponins obtained from sapindus trifoliatus for anticonvulsant activity” (priority 2002, published 2005)
